Laboratory results reported in patent US20170067014A1, “METHOD FOR GENERATING CELL CONDENSATE FOR SELF-ORGANIZATION” (PUBLIC UNIVERSITY CORPORATION YOKOHAMA CITY UNIVERSITY, priority 2014, published 2017).

test system: condensate formation in cocultures of iPSC-hepatic endoderm cells, HUVECs and MSCs; assay: Inhibitory experiment against cell condensate formation using chemical substances; assay type: cell-based, human; conditions: addition to the cocultures
Source text: Hepatic endoderm cells derived from human induced pluripotent stem cells (iPSCs), umbilical cord-derived endothelial cells (HUVECs), and mesenchymal stem cells (MSCs) were labeled with distinctive fluorescent markers and cocultured on a solidified matrix gel which was already described. […] To elucidate dynamics of such condensate formation in more detail, the present inventors examined the temporal development of the position of the edge of the cell condensate (square root of cell area) and circularity by image analysis (FIG. 1b).
On each well of a 24-well plate on which PA gel planar substrate was placed or to which Matrigel coating [Matrigel (BD) either in stock solution or as a mixture with medium at 1:1 was poured at 300 μl/well and left to stand in a 37° C., 5% CO2 incubator for 10 min until it solidified] was applied, 2×10^6 cells or more of multiple types in any combination (tissues isolated from embryo or adult, or KO-HepG2, HUVEC, etc.) as mixed with 2×10^5 MSCs were seeded. In order to form small-sized cell condensates, 4×10^3 cells or more of multiple types in any combination (tissues isolated from embryo or adult, or KO-HepG2, HUVEC) were mixed with 5×10^3 or more MSCs and seeded. In either case, the cells were subsequently cultured in a 37° C. incubator for a day. After seeding, chronological observation of cell coculture was performed with a stereomicroscope or a confocal microscope.

Compound	effect on condensate formation
Cc1ccc2c(c1)C(=O)C1(O)CCN(c3ccccc3)C1=N2 (stereo not drawn) [blebbistatin]	completely antagonized
C[C@@H](N)[C@H]1CC[C@H](C(=O)Nc2ccncc2)CC1 [Sample Y-27632]	partially delayed
c1cc(CN2CCCNCCNCCCNCC2)ccc1CN1CCCNCCNCCCNCC1 [AMD3100]	could not hinder
